Source: patent US20120135995A1, “FUNGICIDAL DIPHENYL-SUBSTITUTED PYRIDAZINES” (E.I. Dupont de Nemours and Company, priority 2009, published 2012)

Experiments:
Erysiphe graminis = experiment: Test F: wheat seedlings sprayed, next day inoculated with Erysiphe graminis (wheat powdery mildew), visual disease rating; type: in vivo; details: sprayed day before inoculation; for pest or weed control at 40 ppm: 40 ppm test suspension (*)
Excerpt: (§1) General protocol for preparing test suspensions for Tests A-F: the test compounds were first dissolved in acetone in an amount equal to 3% of the final volume and then suspended at the desired concentration (in ppm) in acetone and purified water (50/50 mix) containing 250 ppm of the surfactant Trem® 014 (polyhydric alcohol esters). The resulting test suspensions were then used in Tests A-F. Spraying a 200 ppm test suspension to the point of run-off on the test plants was the equivalent of a rate of 500 g/ha. An asterisk “*” next to the rating value indicates a 40 ppm test suspension.
The test suspension was sprayed to the point of run-off on wheat seedlings. The following day the seedlings were inoculated with a spore dust of Erysiphe graminis, (the causal agent of wheat powdery mildew) and incubated in a growth chamber at 20° C. for 8 days, after which time visual disease ratings were made.
(§2) Results for Tests A-F are given in Table A. In the Table, a rating of 100 indicates 100% disease control and a rating of 0 indicates no disease control (relative to the controls). A dash (-) indicates no test results. All results are for 200 ppm except where followed by “*”, which indicates 40 ppm.

[1] = system: Puccinia recondita f. sp. tritici; experiment: Test E1: wheat seedlings inoculated with Puccinia recondita f. sp. tritici (wheat leaf rust), sprayed afterwards, visual disease rating; type: in vivo; details: sprayed after inoculation; for pest or weed control at 40 ppm: 40 ppm test suspension (*)
Excerpt: as §1
Wheat seedlings were inoculated with a spore suspension of Puccinia recondita f. sp. tritici (the causal agent of wheat leaf rust) and incubated in a saturated atmosphere at 20° C. for 24 h, and then moved to a growth chamber at 20° C. for 2 days. At the end of this time the test suspension was sprayed to the point of run-off on the wheat seedlings, and then the seedlings were moved to a growth chamber at 20° C. for 6 days, after which time visual disease ratings were made.
as §2

Septoria nodorum = experiment: Test C: wheat seedlings sprayed, next day inoculated with Septoria nodorum (wheat glume blotch), visual disease rating; type: in vivo; details: sprayed day before inoculation; for pest or weed control at 40 ppm: 40 ppm test suspension (*)
Excerpt: as §1
(§3) The test suspension was sprayed to the point of run-off on wheat seedlings. The following day the seedlings were inoculated with a spore suspension of Septoria nodorum (the causal agent of wheat glume blotch) and incubated in a saturated atmosphere at 24° C. for 48 h, and then moved to a growth chamber at 20° C. for 6 days, after which time visual disease ratings were made.
as §2

[2] = system: Puccinia recondita f. sp. tritici; experiment: Test E2: wheat seedlings sprayed, next day inoculated with Puccinia recondita f. sp. tritici (wheat leaf rust), visual disease rating; type: in vivo; details: sprayed day before inoculation; for pest or weed control at 40 ppm: 40 ppm test suspension (*)
Excerpt: as §1
The test suspension was sprayed to the point of run-off on wheat seedlings. The following day the seedlings were inoculated with a spore suspension of Puccinia recondita f. sp. tritici (the causal agent of wheat leaf rust) and incubated in a saturated atmosphere at 20° C. for 24 h, and then moved to a growth chamber at 20° C. for 7 days, after which time visual disease ratings were made.
as §2

Botrytis cinerea = experiment: Test A: tomato seedlings sprayed, next day inoculated with Botrytis cinerea (tomato Botrytis), visual disease rating; type: in vivo; details: sprayed day before inoculation; for pest or weed control at 40 ppm: 40 ppm test suspension (*)
Excerpt: as §1
The test suspension was sprayed to the point of run-off on tomato seedlings. The following day the seedlings were inoculated with a spore suspension of Botrytis cinerea (the causal agent of tomato Botrytis) and incubated in saturated atmosphere at 20° C. for 48 h, and then moved to a growth chamber at 24° C. for 3 days, after which time visual disease ratings were made.
as §2

Alternaria solani = experiment: Test B: tomato seedlings sprayed, next day inoculated with Alternaria solani (tomato early blight), visual disease rating; type: in vivo; details: sprayed day before inoculation; for pest or weed control at 40 ppm: 40 ppm test suspension (*)
Excerpt: as §1
The test suspension was sprayed to the point of run-off on tomato seedlings. The following day the seedlings were inoculated with a spore suspension of Alternaria solani (the causal agent of tomato early blight) and incubated in a saturated atmosphere at 27° C. for 48 h, and then moved to a growth chamber at 20° C. for 5 days, after which time visual disease ratings were made.
as §2

Septoria tritici = experiment: Test D: wheat seedlings sprayed, next day inoculated with Septoria tritici (wheat leaf blotch), visual disease rating; type: in vivo; details: sprayed day before inoculation; for pest or weed control at 40 ppm: 40 ppm test suspension (*)
Excerpt: as §1
as §3, with “tritici” for “nodorum”, “leaf” for “glume”, “in” for “in a”, “19” for “6”
as §2

[3] = Puccinia recondita, 200 ppm test suspension

Structure (SMILES)	pest or weed control at 40 ppm (Erysiphe graminis; Blumeria graminis) [%]	pest or weed control at 40 ppm ([1]; Puccinia recondita) [%]	pest or weed control at 40 ppm (Septoria nodorum; Parastagonospora nodorum) [%]	pest or weed control at 40 ppm ([2]; Puccinia recondita) [%]	pest or weed control at 40 ppm (Botrytis cinerea; Botrytis cinerea) [%]	pest or weed control at 40 ppm (Alternaria solani; Alternaria solani) [%]	pest or weed control at 40 ppm (Septoria tritici; Zymoseptoria tritici) [%]	Test F rating (disease control) (Erysiphe graminis; 200 ppm test suspension) [%]	Test E1 rating (disease control) ([1]; 200 ppm test suspension) [%]	Test C rating (disease control) (Septoria nodorum; 200 ppm test suspension) [%]	Test E2 rating (disease control) ([2]; 200 ppm test suspension) [%]	Test A rating (disease control) (Botrytis cinerea; 200 ppm test suspension) [%]	Test B rating (disease control) (Alternaria solani; 200 ppm test suspension) [%]	Test D rating (disease control) (Septoria tritici; 200 ppm test suspension) [%]	further results
COc1cc(OC)cc(-c2c(C(C)=O)nnc(C)c2-c2c(F)cc(F)cc2F)c1 [Compound 20, 1-[4-(3,5-dimethoxyphenyl)-6-methyl-5-(2,4,6-trifluorophenyl)-3-pyridazinyl]ethanone]	98	41	0	99	99	26	96								
COc1cc(OC)cc(-c2c(C)nnc(Cl)c2-c2c(F)cccc2F)c1 [Compound 24, 3-chloro-4-(2,6-difluorophenyl)-5-(3,5-dimethoxyphenyl)-6-methylpyridazine]	98	26	55	100	100	26	100								
COc1cc(OC)cc(-c2c(C)nnc(Cl)c2-c2c(F)cccc2Cl)c1 [Compound 38]								100	85	99	100	100	99	100	
COc1ccc(-c2c(C)nnc(C(C)=O)c2-c2cc(OC)cc(OC)c2)cc1 [Compound 14]								84	16	0	95	99	0	99	
COc1cc(OC)c(Cl)c(-c2c(C)nnc(F)c2-c2c(F)cccc2F)c1 [Compound 36]								100	100	60	100	99	100	100	
COc1cc(OC)cc(-c2c(C)nnc(F)c2-c2c(F)cccc2F)c1 [Compound 33, 4-(2,6-difluorophenyl)-3-fluoro-5-(3,5-dimethoxyphenyl)-6-methylpyridazine]															pest or weed control at 200 ppm (Erysiphe graminis; Blumeria graminis, 200 ppm test suspension): 99%; pest or weed control at 200 ppm [1, 3]: 60%; pest or weed control at 200 ppm (Septoria nodorum; Parastagonospora nodorum, 200 ppm test suspension): 99%; pest or weed control at 200 ppm [2, 3]: 100%; pest or weed control at 200 ppm (Botrytis cinerea; Botrytis cinerea, 200 ppm test suspension): 99%; pest or weed control at 200 ppm (Alternaria solani; Alternaria solani, 200 ppm test suspension): 100%; pest or weed control at 200 ppm (Septoria tritici; Zymoseptoria tritici, 200 ppm test suspension): 100%; melting point: 150 to 151 °C
COc1cc(OC)cc(-c2c(CCl)nnc(Cl)c2-c2c(F)cccc2F)c1 [Compound 26, 3-chloro-6-(chloromethyl)-4-(2,6-difluorophenyl)-5-(3,5-dimethoxyphenyl)-pyridazine]	0	0	0	97	99	0	99								
COc1cc(OC)cc(-c2c(CC#N)nnc(C)c2-c2c(F)cccc2F)c1 [Compound 35]								99	46	99	100	98	99	100	
